The assay has as its target T1, abc isoform of human TMEM16A channel expressed in CHO cells (Homo sapiens, UniProt Q5XXA6, DEL476-501).
T1 construct: expressed in transfected cells; host or cells: CHO cells, doxycycline-inducible expression under Blasticidin/Zeocin selection
T1 sequence (Q5XXA6 with tags, fused parts or gaps isoform Q5XXA6-5 DEL539-564): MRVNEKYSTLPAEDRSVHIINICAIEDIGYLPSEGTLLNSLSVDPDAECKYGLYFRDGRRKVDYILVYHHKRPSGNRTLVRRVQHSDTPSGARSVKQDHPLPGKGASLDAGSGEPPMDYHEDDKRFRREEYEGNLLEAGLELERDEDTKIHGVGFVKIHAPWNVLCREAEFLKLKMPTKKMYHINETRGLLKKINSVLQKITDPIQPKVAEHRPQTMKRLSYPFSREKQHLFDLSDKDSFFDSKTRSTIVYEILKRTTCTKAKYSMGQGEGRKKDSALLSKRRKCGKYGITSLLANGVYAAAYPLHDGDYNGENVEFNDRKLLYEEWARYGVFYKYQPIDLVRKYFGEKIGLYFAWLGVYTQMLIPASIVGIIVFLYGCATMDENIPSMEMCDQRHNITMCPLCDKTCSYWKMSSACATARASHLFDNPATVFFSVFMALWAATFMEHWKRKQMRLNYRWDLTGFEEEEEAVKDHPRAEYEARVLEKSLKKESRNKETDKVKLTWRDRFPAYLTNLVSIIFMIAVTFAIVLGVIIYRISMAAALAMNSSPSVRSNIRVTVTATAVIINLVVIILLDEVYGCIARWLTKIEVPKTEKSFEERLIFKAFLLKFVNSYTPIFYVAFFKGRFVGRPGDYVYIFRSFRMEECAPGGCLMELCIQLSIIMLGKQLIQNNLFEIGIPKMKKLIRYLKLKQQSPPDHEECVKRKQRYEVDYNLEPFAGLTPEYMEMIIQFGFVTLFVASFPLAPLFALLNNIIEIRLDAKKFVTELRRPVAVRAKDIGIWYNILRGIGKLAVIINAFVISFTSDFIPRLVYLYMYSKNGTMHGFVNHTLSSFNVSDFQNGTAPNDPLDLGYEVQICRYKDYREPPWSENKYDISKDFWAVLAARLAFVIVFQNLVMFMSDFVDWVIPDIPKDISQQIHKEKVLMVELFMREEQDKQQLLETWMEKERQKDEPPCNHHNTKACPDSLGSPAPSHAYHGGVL
The experiment in a line: Automated patch clamping (QPatch) assay to measure TMEM16A activity in whole-cell. Particulars: for EC50: CHO cells expressing human TMEM16A (abc), whole-cell automated patch clamp, Hill fit, read-out: TMEM16A QPATCH assay EC50 V3 EC50; for Emax: CHO, maximum current at highest dose relative to reference potentiator at maximal concentration (upper limit) and vehicle (lower limit), read-out: TMEM16A QPATCH assay EC50 V3 Assay Window (% TMEM16A max activation). The class given is cell-based. The method, boiled down:
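Whole-cell currents were recorded by planar automated patch clamp from induced CHO cells (doxycycline 1 μg/mL, 18-24 h), using a −70 mV hold, +70 mV step and −90 to +70 mV ramp. Values: Hill-fitted EC50, and activation scaled between vehicle current and reference-potentiator maximum; 0.3% DMSO final.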
(In patch-clamp work, channel activity is measured electrically.)

SMILES strings stand for the structures. Counter-ions that a name gives are not always drawn.

Take `CCC(CC)NC(=O)c1cnc(-c2cccc(-c3cc(C(=O)N[C@@H](C)C4CC4)n[nH]3)c2)o1` [Example 3.25, (S)-2-(3-(3-((1-Cyclopropylethyl)Carbamoyl)-1H-Pyrazol-5-Yl)Phenyl)-N-(Pentan-3-Yl)Oxazole-5-Carboxamide]: the EC50 (in general, the concentration at which the effect is half-maximal) was found to be 40 nM and the Emax turned out to be 90%.

In the case of `CCC(CC)NC(=O)c1cnc(-c2cccc(-c3cc(C(=O)N[C@@H](CC(C)C)C(=O)OC)n[nH]3)c2)o1` [Example 3.27, (S)-Methyl 4-Methyl-2-(5-(3-(5-(Pentan-3-Ylcarbamoyl)Oxazol-2-Yl)Phenyl)-1H-Pyrazole-3-Carboxamido)Pentanoate], the concentration for a half-maximal effect (EC50) amounted to 10 nM and the Emax was found to be 87%.

For the compound `CCC(CC)NC(=O)c1cnc(-c2cccc(-c3cc(C(=O)NC(Cc4ccccc4)C(=O)OC)n[nH]3)c2)o1` (stereo not shown) [Example 3.28, Methyl 2-(5-(3-(5-(Pentan-3-Ylcarbamoyl)Oxazol-2-Yl)Phenyl)-1H-Pyrazole-3-Carboxamido)-3-Phenylpropanoate], the EC50 is 350 nM and the Emax amounted to 84%.

Turning to `CCC(CC)NC(=O)c1cnc(-c2cccc(-c3cc(C(=O)NC(CC)C(C)C)n[nH]3)c2)o1` (stereo not shown) [Example 3.29, 2-(3-(3-((2-Methylpentan-3-Yl)Carbamoyl)-1H-Pyrazol-5-Yl)Phenyl)-N-(Pentan-3-Yl)Oxazole-5-Carboxamide], the EC50 came out at 40 nM and the Emax stood at 94%.

As for `CCC(CC)NC(=O)c1cnc(-c2cccc(-c3cc(C(=O)N4CCC(C(=O)OC)C4)n[nH]3)c2)o1` (stereo not shown) [Example 3.30, Methyl 1-(5-(3-(5-(Pentan-3-Ylcarbamoyl)Oxazol-2-Yl)Phenyl)-1H-Pyrazole-3-Carbonyl)Pyrrolidine-3-Carboxylate], the EC50 came to 750 nM and the Emax was 90%.

For `CCC(CC)NC(=O)c1cnc(-c2cccc(-c3cc(C(=O)N4CCCC4C(C)C)n[nH]3)c2)o1` (stereo not shown) [Example 3.31, 2-(3-(3-(2-Isopropylpyrrolidine-1-Carbonyl)-1H-Pyrazol-5-Yl)Phenyl)-N-(Pentan-3-Yl)Oxazole-5-Carboxamide], the EC50 stood at 180 nM and the Emax was found to be 87%.

As to `CCC(CC)NC(=O)c1cnc(-c2cccc(-c3cc(C(=O)NCC4CC4)n[nH]3)c2)o1` [Example 3.32, 2-(3-(3-((Cyclopropylmethyl)Carbamoyl)-1 H-Pyrazol-5-Yl)Phenyl)-N-(Pentan-3-Yl)Oxazole-5-Carboxamide], the EC50 is 110 nM and the Emax came out at 55%.

Regarding `CCC(CC)NC(=O)c1cnc(-c2cccc(-c3cc(C(=O)N4CCCCC4)n[nH]3)c2)o1` [Example 3.33, N-(Pentan-3-Yl)-2-(3-(3-(Piperidine-1-Carbonyl)-1H-Pyrazol-5-Yl)Phenyl)Oxazole-5-Carboxamide], the half-maximal effective concentration (EC50) worked out at 840 nM and the Emax was found to be 61%.

`CCC(CC)NC(=O)c1cnc(-c2cccc(-c3cc(C(=O)NCc4c(F)cccc4F)n[nH]3)c2)o1` [Example 3.34, 2-(3-(3-((2,6-Difluorobenzyl)Carbamoyl)-1 H-Pyrazol-5-Yl)Phenyl)-N-(Pentan-3-Yl)Oxazole-5-Carboxamide]: the EC50 came out at 220 nM and the Emax was 77%.

As for `CCC(CC)NC(=O)c1cnc(-c2cccc(-c3cc(C(=O)N[C@@H](C)C(C)(C)C)n[nH]3)c2)o1` [Example 3.35, (S)-2-(3-(3-((3,3-Dimethylbutan-2-Yl)Carbamoyl)-1H-Pyrazol-5-Yl)Phenyl)-N-(Pentan-3-Yl)Oxazole-5-Carboxamide Trifluoroacetate], the EC50 stood at 120 nM and the Emax was 69%.

In the case of `CCC(CC)NC(=O)c1cnc(-c2cccc(-c3cc(C(=O)NC(COC)C(C)C)n[nH]3)c2)o1` (stereo not shown) [Example 3.36, 2-(3-(3-((1-Methoxy-3-Methylbutan-2-Yl)Carbamoyl)-1H-Pyrazol-5-Yl)Phenyl)-N-(Pentan-3-Yl)Oxazole-5-Carboxamide], the concentration for a half-maximal effect (EC50) came out at 190 nM and the Emax was 97%.

Turning to `CCC(CC)NC(=O)c1cnc(-c2cccc(-c3cc(C(=O)N[C@H](C)C(C)C)n[nH]3)c2)o1` [Example 3.37, (R)-2-(3-(3-((3-Methylbutan-2-Yl)Carbamoyl)-1H-Pyrazol-5-Yl)Phenyl)-N-(Pentan-3-Yl)Oxazole-5-Carboxamide], the EC50 is 200 nM and the Emax turned out to be 109%.

In the case of `CCC(CC)NC(=O)c1cnc(-c2cccc(-c3cc(C(=O)N[C@@H](C)c4ccccc4)n[nH]3)c2)o1` [Example 3.38, (S)-N-(Pentan-3-Yl)-2-(3-(3-((1-Phenylethyl)Carbamoyl)-1H-Pyrazol-5-yl)Phenyl)Oxazole-5-Carboxamide], the EC50 came to 150 nM and the Emax came to 100%.

In the case of `CCC(CC)NC(=O)c1cnc(-c2cccc(-c3cc(C(=O)NC(C)(C)CCc4ccccc4)n[nH]3)c2)o1` [Example 3.39, 2-(3-(3-((2-Methyl-4-Phenylbutan-2-Yl)Carbamoyl)-1H-Pyrazol-5-yl)Phenyl)-N-(Pentan-3-Yl)Oxazole-5-Carboxamide], the EC50 turned out to be 150 nM and the Emax was found to be 98%.

Take `CCC(CC)NC(=O)c1cnc(-c2cccc(-c3cc(C(=O)NC4CCCCC4)n[nH]3)c2)o1` [Example 3.40, 2-(3-(3-(Cyclohexylcarbamoyl)-1 H-Pyrazol-5-Yl)Phenyl)-N-(Pentan-3-yl)Oxazole-5-Carboxamide]: the concentration for a half-maximal effect (EC50) is 70 nM and the Emax was determined as 96%.

Consider `CCC(CC)NC(=O)c1cnc(-c2cccc(-c3cc(C(=O)N[C@H](C(=O)OC)C(C)C)n[nH]3)c2)o1` [Example 3.41, (S)-Methyl 3-Methyl-2-(5-(3-(5-(Pentan-3-Ylcarbamoyl)Oxazol-2-Yl)Phenyl)-1H-Pyrazole-3-Carboxamido)Butanoate], for which the concentration giving a half-maximal response (EC50) amounted to 130 nM and the Emax came to 89%.

Regarding `CCC(CC)NC(=O)c1cnc(-c2cccc(-c3cc(C(=O)N[C@@H](C)C(=O)OC)n[nH]3)c2)o1` [Example 3.42, (S)-Methyl 2-(5-(3-(5-(Pentan-3-Ylcarbamoyl)Oxazol-2-Yl)Phenyl)-1H-Pyrazole-3-Carboxamido)Propanoate], the EC50 is 690 nM and the Emax worked out at 86%.

Turning to `CCC(CC)NC(=O)c1cnc(-c2cccc(-c3cc(C(=O)NC(C)(C)C)n[nH]3)c2)o1` [Example 3.43, 2-(3-(3-(Tert-Butylcarbamoyl)-1 H-Pyrazol-5-Yl)Phenyl)-N-(Pentan-3-yl)Oxazole-5-Carboxamide], the EC50 amounted to 130 nM and the Emax is 84%.

Turning to `CCC(CC)NC(=O)c1cnc(-c2cccc(-c3cc(C(=O)N[C@H](C)C4CCCCC4)n[nH]3)c2)o1` [Example 3.44, (R)-2-(3-(3-((1-Cyclohexylethyl)Carbamoyl)-1H-Pyrazol-5-Yl)Phenyl)-N-(Pentan-3-Yl)Oxazole-5-Carboxamide], the half-maximal effective concentration (EC50) amounted to 230 nM and the Emax amounted to 82%.

As to `CCC(CC)NC(=O)c1cnc(-c2cccc(-c3cc(C(=O)NCc4ccc(F)cc4)n[nH]3)c2)o1` [Example 3.45, 2-(3-(3-((4-Fluorobenzyl)Carbamoyl)-1 H-Pyrazol-5-Yl)Phenyl)-N-(Pentan-3-yl)Oxazole-5-Carboxamide], the 50% effective concentration (EC50) was found to be 550 nM and the Emax is 81%.
